Results on 9 compounds are retold here after ChEMBL document CHEMBL5291721, “A preclinical secondary pharmacology resource illuminates target-adverse drug reaction associations of marketed drugs” (Nat Commun, 2023).

The target in test [1] is T1, Muscarinic acetylcholine receptor M2 (Homo sapiens, UniProt P08172).
T1 sequence (P08172 whole entry): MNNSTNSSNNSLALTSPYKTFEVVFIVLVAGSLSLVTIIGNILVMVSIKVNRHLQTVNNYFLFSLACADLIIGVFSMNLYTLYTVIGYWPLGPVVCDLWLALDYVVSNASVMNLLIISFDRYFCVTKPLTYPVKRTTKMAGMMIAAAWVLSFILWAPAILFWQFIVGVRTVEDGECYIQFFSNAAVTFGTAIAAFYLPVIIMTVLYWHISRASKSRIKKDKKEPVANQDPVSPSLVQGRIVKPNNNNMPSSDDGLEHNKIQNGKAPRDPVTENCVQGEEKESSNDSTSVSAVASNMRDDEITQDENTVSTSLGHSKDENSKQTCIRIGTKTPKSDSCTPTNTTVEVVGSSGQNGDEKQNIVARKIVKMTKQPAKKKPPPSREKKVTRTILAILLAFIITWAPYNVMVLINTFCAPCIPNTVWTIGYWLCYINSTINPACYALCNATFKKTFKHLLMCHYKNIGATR

For test [2], the target named is 3',5'-cyclic-AMP phosphodiesterase 4A (Homo sapiens, UniProt P27815). It is filed as functional.
Test [3] addresses T2, Alpha-2A adrenergic receptor (Homo sapiens, UniProt P08913).
T2 sequence (P08913 whole entry): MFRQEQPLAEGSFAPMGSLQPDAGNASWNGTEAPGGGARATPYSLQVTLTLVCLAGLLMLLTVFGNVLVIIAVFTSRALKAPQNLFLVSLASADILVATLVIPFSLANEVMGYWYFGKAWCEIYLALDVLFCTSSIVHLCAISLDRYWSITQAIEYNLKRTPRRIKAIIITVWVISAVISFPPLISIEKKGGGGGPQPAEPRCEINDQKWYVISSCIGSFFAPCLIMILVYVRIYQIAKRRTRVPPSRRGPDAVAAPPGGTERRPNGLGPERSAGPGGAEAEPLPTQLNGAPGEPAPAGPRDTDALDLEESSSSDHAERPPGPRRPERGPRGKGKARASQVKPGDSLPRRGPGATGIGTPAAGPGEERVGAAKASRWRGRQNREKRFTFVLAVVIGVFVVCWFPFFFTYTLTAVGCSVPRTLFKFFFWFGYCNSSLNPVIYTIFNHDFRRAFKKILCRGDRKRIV

For test [4], the target named is cGMP-inhibited 3',5'-cyclic phosphodiesterase 3A (Homo sapiens, UniProt Q14432). It is filed as functional.
cGMP-inhibited 3',5'-cyclic phosphodiesterase 3A, sequence (Q14432 whole entry): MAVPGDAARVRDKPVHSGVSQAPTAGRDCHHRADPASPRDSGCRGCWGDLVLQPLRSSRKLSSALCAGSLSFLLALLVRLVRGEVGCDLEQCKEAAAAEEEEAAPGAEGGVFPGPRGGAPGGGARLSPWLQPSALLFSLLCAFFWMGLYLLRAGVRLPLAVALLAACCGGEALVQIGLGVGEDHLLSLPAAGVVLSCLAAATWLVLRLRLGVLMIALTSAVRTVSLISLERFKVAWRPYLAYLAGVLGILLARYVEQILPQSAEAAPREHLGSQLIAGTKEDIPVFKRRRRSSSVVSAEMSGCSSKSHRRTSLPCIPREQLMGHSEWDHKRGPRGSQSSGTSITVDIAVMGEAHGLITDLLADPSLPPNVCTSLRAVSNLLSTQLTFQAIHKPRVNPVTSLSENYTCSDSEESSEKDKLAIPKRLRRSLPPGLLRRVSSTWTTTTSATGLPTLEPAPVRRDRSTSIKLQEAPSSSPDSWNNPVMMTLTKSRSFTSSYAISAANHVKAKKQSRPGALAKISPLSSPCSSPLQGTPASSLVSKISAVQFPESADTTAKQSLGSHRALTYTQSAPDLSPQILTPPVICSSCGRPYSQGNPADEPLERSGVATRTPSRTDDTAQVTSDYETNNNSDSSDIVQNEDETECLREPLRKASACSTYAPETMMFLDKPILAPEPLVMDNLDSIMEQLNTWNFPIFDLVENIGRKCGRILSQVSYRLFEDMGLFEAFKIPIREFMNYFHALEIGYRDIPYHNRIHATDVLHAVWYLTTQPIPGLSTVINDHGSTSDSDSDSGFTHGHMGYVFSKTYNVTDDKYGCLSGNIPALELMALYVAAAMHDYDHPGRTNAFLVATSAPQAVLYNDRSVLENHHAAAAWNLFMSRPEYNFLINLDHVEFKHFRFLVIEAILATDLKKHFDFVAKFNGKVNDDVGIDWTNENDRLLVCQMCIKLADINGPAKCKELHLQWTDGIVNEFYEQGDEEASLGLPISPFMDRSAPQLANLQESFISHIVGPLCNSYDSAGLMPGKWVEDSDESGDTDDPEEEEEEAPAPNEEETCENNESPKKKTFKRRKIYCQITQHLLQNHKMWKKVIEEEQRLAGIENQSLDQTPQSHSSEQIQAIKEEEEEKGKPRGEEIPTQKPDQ
The target in test [5] is T3, Thromboxane A2 receptor (Homo sapiens, UniProt P21731).
T3 sequence (P21731 whole entry): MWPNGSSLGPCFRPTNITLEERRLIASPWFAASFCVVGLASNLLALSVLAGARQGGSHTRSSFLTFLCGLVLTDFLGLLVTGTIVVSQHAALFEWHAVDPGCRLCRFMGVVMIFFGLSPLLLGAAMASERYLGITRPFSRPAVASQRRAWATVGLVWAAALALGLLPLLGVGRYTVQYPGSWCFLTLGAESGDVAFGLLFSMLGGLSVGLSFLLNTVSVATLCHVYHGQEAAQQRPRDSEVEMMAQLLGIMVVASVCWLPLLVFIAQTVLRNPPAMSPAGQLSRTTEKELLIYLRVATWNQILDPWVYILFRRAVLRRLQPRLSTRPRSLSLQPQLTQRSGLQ
The class given is functional, cell-based.

A further test deals with Acetylcholinesterase (Homo sapiens, UniProt P22303). It is filed as functional.
Acetylcholinesterase, sequence (P22303 whole entry): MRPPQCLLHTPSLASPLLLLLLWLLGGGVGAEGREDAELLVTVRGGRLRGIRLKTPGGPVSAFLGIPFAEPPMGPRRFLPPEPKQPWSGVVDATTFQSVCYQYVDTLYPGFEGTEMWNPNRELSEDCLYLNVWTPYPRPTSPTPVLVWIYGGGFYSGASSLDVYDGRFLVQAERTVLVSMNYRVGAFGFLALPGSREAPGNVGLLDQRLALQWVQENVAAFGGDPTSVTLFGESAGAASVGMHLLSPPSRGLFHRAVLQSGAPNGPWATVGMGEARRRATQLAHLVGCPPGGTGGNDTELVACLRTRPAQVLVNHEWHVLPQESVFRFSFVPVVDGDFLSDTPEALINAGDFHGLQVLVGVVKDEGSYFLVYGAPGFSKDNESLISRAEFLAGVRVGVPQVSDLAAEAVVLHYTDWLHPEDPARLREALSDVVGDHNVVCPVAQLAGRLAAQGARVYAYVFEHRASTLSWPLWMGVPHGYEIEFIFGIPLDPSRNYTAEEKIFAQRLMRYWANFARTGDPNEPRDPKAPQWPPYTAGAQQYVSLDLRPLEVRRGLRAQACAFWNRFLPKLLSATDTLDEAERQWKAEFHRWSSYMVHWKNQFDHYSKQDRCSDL
In test [6] the target is T4, Amine oxidase [flavin-containing] A (Homo sapiens, UniProt P21397).
T4 sequence (P21397 whole entry): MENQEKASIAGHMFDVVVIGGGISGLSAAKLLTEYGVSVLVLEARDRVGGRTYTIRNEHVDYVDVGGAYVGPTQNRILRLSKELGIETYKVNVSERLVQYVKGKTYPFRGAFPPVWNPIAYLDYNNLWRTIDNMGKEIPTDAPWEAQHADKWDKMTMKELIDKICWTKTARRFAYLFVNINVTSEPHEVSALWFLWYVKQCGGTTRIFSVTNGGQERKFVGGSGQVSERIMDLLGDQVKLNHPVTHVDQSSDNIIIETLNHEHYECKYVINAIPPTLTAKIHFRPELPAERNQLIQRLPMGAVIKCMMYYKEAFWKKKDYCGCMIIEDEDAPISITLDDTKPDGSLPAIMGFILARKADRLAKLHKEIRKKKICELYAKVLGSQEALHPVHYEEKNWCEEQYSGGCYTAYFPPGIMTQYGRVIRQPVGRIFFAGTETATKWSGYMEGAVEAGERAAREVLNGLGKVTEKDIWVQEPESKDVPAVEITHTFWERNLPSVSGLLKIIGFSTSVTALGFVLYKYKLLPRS
The class given is functional.

Test [7] addresses T5, 5-hydroxytryptamine receptor 1A (Homo sapiens, UniProt P08908).
T5 sequence (P08908 whole entry): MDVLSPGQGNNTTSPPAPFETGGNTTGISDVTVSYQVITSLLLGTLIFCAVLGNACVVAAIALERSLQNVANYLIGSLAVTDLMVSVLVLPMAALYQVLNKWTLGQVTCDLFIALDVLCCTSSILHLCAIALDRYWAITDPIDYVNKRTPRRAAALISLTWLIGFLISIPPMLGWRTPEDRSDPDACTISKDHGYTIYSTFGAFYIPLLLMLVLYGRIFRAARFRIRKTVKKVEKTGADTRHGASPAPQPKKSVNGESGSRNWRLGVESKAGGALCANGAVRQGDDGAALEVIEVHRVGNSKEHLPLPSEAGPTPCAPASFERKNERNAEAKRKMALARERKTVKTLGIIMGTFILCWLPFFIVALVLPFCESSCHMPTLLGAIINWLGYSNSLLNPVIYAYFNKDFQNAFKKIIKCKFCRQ

Test [8] deals with Sodium-dependent dopamine transporter (Homo sapiens, UniProt Q01959).
Sodium-dependent dopamine transporter, sequence (Q01959 whole entry): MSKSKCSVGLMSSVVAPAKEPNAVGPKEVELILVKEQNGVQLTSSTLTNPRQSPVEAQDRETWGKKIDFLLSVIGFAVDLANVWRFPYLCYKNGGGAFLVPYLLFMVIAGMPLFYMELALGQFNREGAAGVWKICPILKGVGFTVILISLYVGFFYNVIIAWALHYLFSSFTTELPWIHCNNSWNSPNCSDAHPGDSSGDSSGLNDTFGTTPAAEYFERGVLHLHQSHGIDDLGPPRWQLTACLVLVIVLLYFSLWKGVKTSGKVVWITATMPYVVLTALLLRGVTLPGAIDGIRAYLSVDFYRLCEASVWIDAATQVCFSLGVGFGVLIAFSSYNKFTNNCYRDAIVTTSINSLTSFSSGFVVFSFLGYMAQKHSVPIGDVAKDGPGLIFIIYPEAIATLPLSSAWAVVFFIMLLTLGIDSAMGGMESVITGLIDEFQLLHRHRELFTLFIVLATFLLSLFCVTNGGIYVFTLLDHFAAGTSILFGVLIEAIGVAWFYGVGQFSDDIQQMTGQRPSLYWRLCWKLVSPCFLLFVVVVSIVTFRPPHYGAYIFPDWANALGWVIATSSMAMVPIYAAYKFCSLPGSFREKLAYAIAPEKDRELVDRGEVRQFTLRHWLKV
Test [9] deals with Voltage-gated inwardly rectifying potassium channel KCNH2 (Homo sapiens, UniProt Q12809). The class given is functional.
Voltage-gated inwardly rectifying potassium channel KCNH2, sequence (Q12809 whole entry): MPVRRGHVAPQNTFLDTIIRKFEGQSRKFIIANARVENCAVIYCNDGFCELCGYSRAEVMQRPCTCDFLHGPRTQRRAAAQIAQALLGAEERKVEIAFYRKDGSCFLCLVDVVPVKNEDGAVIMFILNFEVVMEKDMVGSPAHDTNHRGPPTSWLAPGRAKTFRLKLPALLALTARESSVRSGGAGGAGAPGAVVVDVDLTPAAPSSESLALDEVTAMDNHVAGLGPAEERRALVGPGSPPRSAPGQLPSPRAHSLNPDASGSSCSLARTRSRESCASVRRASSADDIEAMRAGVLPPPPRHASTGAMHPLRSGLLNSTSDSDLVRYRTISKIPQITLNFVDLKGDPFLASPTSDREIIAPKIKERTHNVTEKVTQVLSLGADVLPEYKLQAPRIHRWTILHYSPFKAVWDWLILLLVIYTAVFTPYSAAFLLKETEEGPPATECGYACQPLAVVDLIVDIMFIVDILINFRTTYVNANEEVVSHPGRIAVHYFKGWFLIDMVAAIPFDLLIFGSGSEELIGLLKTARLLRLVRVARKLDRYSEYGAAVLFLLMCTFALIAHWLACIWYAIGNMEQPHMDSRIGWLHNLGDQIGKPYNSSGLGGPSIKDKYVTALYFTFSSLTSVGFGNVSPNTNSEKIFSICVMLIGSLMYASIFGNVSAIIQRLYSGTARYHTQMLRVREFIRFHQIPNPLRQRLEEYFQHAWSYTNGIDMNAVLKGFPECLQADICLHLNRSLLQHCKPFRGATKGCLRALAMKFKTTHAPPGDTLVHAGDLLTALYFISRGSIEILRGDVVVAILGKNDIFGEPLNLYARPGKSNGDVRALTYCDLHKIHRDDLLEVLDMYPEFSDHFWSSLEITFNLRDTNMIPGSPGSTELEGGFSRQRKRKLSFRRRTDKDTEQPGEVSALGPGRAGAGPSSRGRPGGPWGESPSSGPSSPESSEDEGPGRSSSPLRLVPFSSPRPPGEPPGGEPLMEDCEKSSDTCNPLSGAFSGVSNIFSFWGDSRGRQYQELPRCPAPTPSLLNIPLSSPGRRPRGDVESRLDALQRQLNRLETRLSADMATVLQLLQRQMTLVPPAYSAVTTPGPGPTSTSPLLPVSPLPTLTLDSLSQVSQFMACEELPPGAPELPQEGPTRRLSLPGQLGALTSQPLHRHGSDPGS
Test [10] concerns the target 5-hydroxytryptamine receptor 2B (Homo sapiens, UniProt P41595). The class given is functional, cell-based.
In a further test the target is Prothrombin (Homo sapiens, UniProt P00734). The class given is functional.
In the next test the target is Histamine H3 receptor (Homo sapiens, UniProt Q9Y5N1).
Histamine H3 receptor, sequence (Q9Y5N1 whole entry): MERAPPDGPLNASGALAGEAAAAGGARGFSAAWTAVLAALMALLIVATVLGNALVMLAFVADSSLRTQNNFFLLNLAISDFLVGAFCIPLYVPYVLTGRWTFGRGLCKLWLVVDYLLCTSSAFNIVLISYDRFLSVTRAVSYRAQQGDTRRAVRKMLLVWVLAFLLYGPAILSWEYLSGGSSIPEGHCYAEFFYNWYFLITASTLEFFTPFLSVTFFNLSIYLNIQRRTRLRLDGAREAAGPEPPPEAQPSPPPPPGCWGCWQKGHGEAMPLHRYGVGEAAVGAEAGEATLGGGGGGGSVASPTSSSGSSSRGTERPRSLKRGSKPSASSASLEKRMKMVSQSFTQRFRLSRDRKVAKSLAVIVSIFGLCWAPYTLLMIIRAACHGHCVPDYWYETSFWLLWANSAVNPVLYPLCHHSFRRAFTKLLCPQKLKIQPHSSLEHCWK
Test [11] deals with T3, Thromboxane A2 receptor. It is filed as functional, cell-based. The source holds these as a separate data set.
Also: assay procedure not described here.

5-hydroxytryptamine receptor 2B, sequence (P41595 whole entry): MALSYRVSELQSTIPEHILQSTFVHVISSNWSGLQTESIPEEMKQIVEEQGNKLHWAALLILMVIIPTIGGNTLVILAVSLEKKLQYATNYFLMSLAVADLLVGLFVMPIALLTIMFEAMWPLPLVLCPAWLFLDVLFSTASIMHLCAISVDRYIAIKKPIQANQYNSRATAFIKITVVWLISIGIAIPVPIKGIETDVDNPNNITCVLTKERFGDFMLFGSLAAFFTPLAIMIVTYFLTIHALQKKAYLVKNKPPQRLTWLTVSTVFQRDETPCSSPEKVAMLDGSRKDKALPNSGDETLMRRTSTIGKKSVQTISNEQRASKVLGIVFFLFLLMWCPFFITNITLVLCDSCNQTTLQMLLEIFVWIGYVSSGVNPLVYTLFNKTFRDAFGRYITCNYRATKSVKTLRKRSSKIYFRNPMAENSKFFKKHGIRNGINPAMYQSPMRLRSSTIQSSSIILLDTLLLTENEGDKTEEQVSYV

Take `COC(=O)C[C@](O)(CCCC(C)(C)O)C(=O)O[C@@H]1C(OC)=C[C@]23CCCN2CCc2cc4c(cc2[C@H]13)OCO4` [OMACETAXINE MEPESUCCINATE]: the half-maximal activity concentration (AC50) (in [1]; in test [2]; in test [3]; in test [4]; on Thromboxane A2 receptor [5]; on Acetylcholinesterase) was more than 30 µM each time. Also, the half-maximal activity concentration (AC50) (in test [6]; in test [7]; in test [8]; in test [9]; in test [10]; on Prothrombin) was more than 30 µM in each case. In addition, the AC50 at Histamine H3 receptor and on Thromboxane A2 receptor [11] was more than 30 µM in each case.

Regarding `COc1cccc(C(=O)CCN[C@@H](C)[C@H](O)c2ccccc2)c1` [OXYFEDRINE], the half-maximal activity concentration (AC50) in [1] was more than 30 µM; in test [2] it was more than 30 µM; in test [3] it was 5.96 µM; in test [4] it was more than 30 µM; on Thromboxane A2 receptor [5] it was more than 30 µM; on Acetylcholinesterase it was more than 30 µM. Besides, the AC50 is more than 30 µM in test [6]; 0.0096 µM in [7]; 2.97 µM in [8]; 10 µM in test [9]; more than 30 µM in [10]; more than 30 µM on Prothrombin. Besides, the concentration at half-maximal activity (AC50) on Histamine H3 receptor and on Thromboxane A2 receptor [11] was more than 30 µM throughout.

For the compound `CC[N+](C)(CC)CCOC(=O)C(O)(c1ccccc1)C1CCCCC1` (stereo unspecified) [OXYPHENONIUM], the AC50 in test [1] was 0.003 µM; in [2] it was more than 30 µM; in test [3], more than 30 µM; in test [4] it was more than 30 µM; on Thromboxane A2 receptor [5], more than 30 µM; on Acetylcholinesterase, more than 30 µM. The AC50 in test [6] is more than 30 µM; in [7] it was more than 30 µM; in test [8] it was 21.9 µM; in test [9], 14 µM; in [10], more than 30 µM; on Prothrombin, more than 30 µM. Moreover, the AC50 at Histamine H3 receptor and on Thromboxane A2 receptor [11] was more than 30 µM each time.

As to `C[C@@H]1C[C@H]2[C@@H]3C[C@H](F)C4=CC(=O)C=C[C@]4(C)[C@H]3[C@@H](O)C[C@]2(C)[C@@]1(O)C(=O)CO` [PARAMETHASONE], the AC50 (in test [1]; in test [2]; in [3]; in [4]; on Thromboxane A2 receptor [5]; on Acetylcholinesterase) was more than 30 µM in each case. The AC50 (in test [6]; in [7]; in test [8]; in test [9]; in test [10]; at Prothrombin) was more than 30 µM each time. Also, the AC50 at Histamine H3 receptor and at Thromboxane A2 receptor [11] was more than 30 µM throughout.

As for `N[C@@H](Cc1ccccc1)C(=O)O` [PHENYLALANINE], the concentration at half-maximal activity (AC50) (in [1]; in [2]; in test [3]; in [4]; at Thromboxane A2 receptor [5]; on Acetylcholinesterase) was more than 30 µM each time. The AC50 (in [6]; in test [7]; in test [8]; in test [9]; in [10]; on Prothrombin) was more than 30 µM each time. For the same compound, the half-maximal activity concentration (AC50) on Histamine H3 receptor and at Thromboxane A2 receptor [11] was more than 30 µM throughout.

As to `CCCn1cnc2c1c(=O)n(CCCCC(C)=O)c(=O)n2C` [PROPENTOFYLLINE], the AC50 is more than 30 µM in test [1]; 8.96 µM in [2]; more than 30 µM in [3]; more than 30 µM in [4]; more than 30 µM on Thromboxane A2 receptor [5]; more than 30 µM at Acetylcholinesterase. Besides, the concentration at half-maximal activity (AC50) (in test [6]; in test [7]; in test [8]; in test [9]; in test [10]; at Prothrombin) was more than 30 µM throughout. For the same compound, the AC50 at Histamine H3 receptor and on Thromboxane A2 receptor [11] was more than 30 µM in each case.

Take `Clc1ccc(C(Cn2ccnc2)OCc2csc3c(Cl)cccc23)c(Cl)c1` (stereo unspecified) [SERTACONAZOLE]: the AC50 in test [1] is 6.26 µM; in test [2], 17.7 µM; in test [3] it was 3.8 µM; in [4], more than 30 µM; at Thromboxane A2 receptor [5] it was more than 30 µM; on Acetylcholinesterase, more than 30 µM. In addition, the half-maximal activity concentration (AC50) in test [6] was more than 30 µM; in [7] it was 12.4 µM; in test [8], 1.88 µM; in test [9], 1.7 µM; in test [10], more than 30 µM; on Prothrombin, more than 30 µM. The half-maximal activity concentration (AC50) at Histamine H3 receptor amounted to 23.3 µM; on Thromboxane A2 receptor [11], 14.5 µM.

Turning to `CC(OCCN1CCCCCC1)(c1ccccc1)c1ccc(Cl)cc1` (stereo unspecified) [SETASTINE], the half-maximal activity concentration (AC50) in test [1] is 0.393 µM; in test [2], more than 30 µM; in test [3], 7.86 µM; in test [4], more than 30 µM; on Thromboxane A2 receptor [5], more than 30 µM; at Acetylcholinesterase, 9.61 µM. In addition, the AC50 in test [6] was more than 30 µM; in test [7] it was 9.59 µM; in [8], 2.98 µM; in test [9] it was 0.14 µM; in [10] it was more than 30 µM; at Prothrombin it was more than 30 µM. Moreover, the figures for the concentration at half-maximal activity (AC50) on Histamine H3 receptor and at Thromboxane A2 receptor [11] were 23.2 µM and 8.8 µM, respectively.

On to `CCCSc1nc(N[C@@H]2C[C@H]2c2ccc(F)c(F)c2)c2nnn([C@@H]3C[C@H](OCCO)[C@@H](O)[C@H]3O)c2n1` [TICAGRELOR], for which the AC50 was more than 30 µM in test [1]; 21.3 µM in test [2]; more than 30 µM in test [3]; 17 µM in [4]; more than 30 µM on Thromboxane A2 receptor [5]; more than 30 µM at Acetylcholinesterase. Also, the AC50 in [6] is more than 30 µM; in test [7], more than 30 µM; in test [8], 0.425 µM; in [9] it was 27 µM; in test [10], more than 30 µM; at Prothrombin, more than 30 µM. Besides, the AC50 at Histamine H3 receptor is more than 30 µM; at Thromboxane A2 receptor [11], 6.38 µM.

The AC50 is the midpoint of the concentration-response curve, whichever way the signal moves. Read a low AC50 as greater potency.
